Test systems include OVCAR-5; SF-268; SK-MEL-28; K562; MOLT-4; SK-OV-3; CCRF-CEM; UO-31; M14; TK-10; OVCAR-8; SF-539; CAKI-1; ACHN; UACC-62; OVCAR-3.
Assay in all cases: NCI anticancer screen, dose series, 48 h

We go through 13 compounds from ChEMBL document CHEMBL1201862, “PubChem BioAssay data set” (2004).

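Results reflect a 48-hour exposure of cells in 96-well plates to compound at five concentrations. Abbreviation: GI50, concentration required for 50% inhibition of growth.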 The source made the active and inactive calls. Cut-off read from the data, not from the text of the source: active = GI50 up to about 1.1 µM and inactive = higher. Where only a bound is given, the exact number is not on record here.

In the case of `CC(=O)OC(C)(C)/C=C/C(=O)[C@](C)(O)[C@H]1[C@H](O)C[C@@]2(C)[C@@H]3CC=C4[C@@H](C[C@H](O)[C@H](O)C4(C)C)[C@]3(C)C(=O)C[C@]12C`, the GI50 in the assay on OVCAR-5 was 0.883 µM (active); with SF-268, 0.397 µM (active); in the assay on SK-MEL-28, 0.526 µM (active); in the assay on K562, 0.272 µM (active); in the assay with MOLT-4, 0.289 µM (active); in the assay with SK-OV-3, 2.79 µM (inactive). Also, the GI50 in the assay with CCRF-CEM was 0.229 µM (active); in the assay with UO-31, 0.839 µM (active); in the assay on M14 it was 0.442 µM (active); in the assay with TK-10, 0.548 µM (active); with OVCAR-8, 0.33 µM (active); in the assay on SF-539, 0.303 µM (active). Further, the GI50 with CAKI-1 is 0.385 µM (active); in the assay with ACHN it was 0.498 µM (active); with UACC-62, 0.48 µM (active); in the assay with OVCAR-3, 0.314 µM (active).

On to `C/C(O)=C1\CC2CN3CCc4c([nH]c5ccccc45)C3CC2CC1=O` (configuration not stated), for which the GI50 in the assay with OVCAR-5 was 70 µM (inactive); in the assay with SF-268 it was 54.6 µM (inactive); with SK-MEL-28 it was > 100 µM (inactive); in the assay on K562, 28.5 µM (inactive); in the assay on MOLT-4 it was 21.8 µM (inactive); in the assay with SK-OV-3, 24.8 µM (inactive). Besides, the GI50 with CCRF-CEM was 29.4 µM (inactive); with UO-31 it was 37.9 µM (inactive); in the assay with M14, 49.4 µM (inactive); in the assay on TK-10, > 100 µM (inactive); in the assay with OVCAR-8 it was 89.1 µM (inactive); in the assay with SF-539, 75.2 µM (inactive). Besides, the GI50 with ACHN was 82.8 µM (inactive); with OVCAR-3 it was 27.9 µM (inactive).

In the case of `N#C/N=C1\NC(Cc2ccccc2)C(=O)N1CCc1c[nH]c2ccccc12` (configuration not stated), the GI50 with SF-268 is 15.7 µM (inactive); in the assay with SK-MEL-28, 23.6 µM (inactive); in the assay with K562, 23.9 µM (inactive); in the assay with MOLT-4 it was 18.4 µM (inactive); in the assay on SK-OV-3, 26.3 µM (inactive); in the assay on CCRF-CEM, 25.5 µM (inactive). In addition, the GI50 is 24 µM (inactive) in the assay on UO-31; 35.1 µM (inactive) in the assay on M14; 26.6 µM (inactive) with TK-10; 37.4 µM (inactive) with OVCAR-8; 29.6 µM (inactive) in the assay on SF-539; 23.2 µM (inactive) with UACC-62. In the assay on OVCAR-3, the GI50 was 33.6 µM (inactive).

As to `CCOC(=O)c1nn2c(nc1=O)sc1ccc3ccccc3c12`, the GI50 in the assay with OVCAR-5, in the assay with SF-268, with SK-MEL-28, in the assay on K562, with MOLT-4 and in the assay on SK-OV-3 was > 100 µM (inactive) throughout. Further, the GI50 is 58.2 µM (inactive) in the assay with CCRF-CEM; > 100 µM (inactive) in the assay on UO-31; > 100 µM (inactive) in the assay on M14; > 100 µM (inactive) in the assay with TK-10; > 100 µM (inactive) in the assay with OVCAR-8; > 100 µM (inactive) in the assay with SF-539. Besides, the GI50 in the assay with CAKI-1, with ACHN, with UACC-62 and with OVCAR-3 was > 100 µM (inactive) throughout.

`O=C(NC(=O)c1cc2cc(Br)cc(Br)c2oc1=O)Oc1ccccc1`: the GI50 with OVCAR-5 was > 100 µM (inactive); with SF-268, > 100 µM (inactive); with SK-MEL-28, > 100 µM (inactive); with K562 it was > 100 µM (inactive); in the assay on MOLT-4, > 100 µM (inactive); with SK-OV-3, 37 µM (inactive). Moreover, the GI50 in the assay with CCRF-CEM is > 100 µM (inactive); in the assay with UO-31 it was > 100 µM (inactive); with M14, > 100 µM (inactive); with TK-10, 47.9 µM (inactive); with OVCAR-8, 46.5 µM (inactive); in the assay with SF-539 it was 87.3 µM (inactive). The GI50 was 43 µM (inactive) with CAKI-1, 21.7 µM (inactive) in the assay with ACHN, 50.7 µM (inactive) in the assay with UACC-62 and > 100 µM (inactive) with OVCAR-3.

Turning to `COc1ccc(C2S/C(=C\c3ccccc3)C(=O)N2NC(=O)Cc2ccccc2)cc1` (configuration not stated), the GI50 in the assay on OVCAR-5 was > 100 µM (inactive); in the assay on SF-268, > 100 µM (inactive); in the assay on SK-MEL-28, 26.1 µM (inactive); with K562 it was > 100 µM (inactive); in the assay with MOLT-4 it was > 100 µM (inactive); in the assay with SK-OV-3 it was > 100 µM (inactive). In addition, the GI50 in the assay with CCRF-CEM is 49.3 µM (inactive); with UO-31, > 100 µM (inactive); in the assay with M14, > 100 µM (inactive); in the assay on TK-10 it was > 100 µM (inactive); in the assay with OVCAR-8 it was > 100 µM (inactive); with SF-539, > 100 µM (inactive). Also, the GI50 with CAKI-1, in the assay with ACHN and in the assay on UACC-62 was > 100 µM (inactive) each time.

For the compound `COC(=O)[C@H]1COC(=S)N1C(=O)[C@@H](C)[C@H](O)C(C)C`, the GI50 in the assay with OVCAR-5, in the assay on SF-268, in the assay on SK-MEL-28, in the assay with K562, with MOLT-4 and with SK-OV-3 was > 100 µM (inactive) in each case. In addition, the GI50 with CCRF-CEM, with UO-31, in the assay on M14, in the assay with TK-10, with OVCAR-8 and with SF-539 was > 100 µM (inactive) throughout. Also, the GI50 in the assay on CAKI-1, in the assay with ACHN, in the assay with UACC-62 and in the assay with OVCAR-3 was > 100 µM (inactive) throughout.

On to `C[C@]12CCc3nonc3C1CC[C@@H]1C2CC[C@]2(C)NC(=O)CCC12` (some centres not stated), for which the GI50 in the assay on OVCAR-5, in the assay with SF-268, in the assay with SK-MEL-28, in the assay on K562, in the assay on MOLT-4 and in the assay on SK-OV-3 was > 100 µM (inactive) throughout. Moreover, the GI50 in the assay on CCRF-CEM, in the assay on UO-31, in the assay with M14, with TK-10, in the assay on OVCAR-8 and in the assay on SF-539 was > 100 µM (inactive) throughout. Besides, the GI50 with CAKI-1, in the assay on ACHN, with UACC-62 and in the assay with OVCAR-3 was > 100 µM (inactive) each time.

For `O=C(CC1Sc2ccccc2NC1=O)Nc1cc(Cl)ccc1Cl` (configuration not stated), the GI50 with OVCAR-5 is > 100 µM (inactive); in the assay on SF-268, > 100 µM (inactive); with SK-MEL-28 it was > 100 µM (inactive); in the assay with K562 it was > 100 µM (inactive); with MOLT-4 it was 29.8 µM (inactive); with CCRF-CEM, 31.2 µM (inactive). The GI50 in the assay with UO-31 was > 100 µM (inactive); in the assay on M14, > 100 µM (inactive); in the assay on TK-10, > 100 µM (inactive); with OVCAR-8 it was > 100 µM (inactive); in the assay on SF-539, 92.3 µM (inactive); in the assay with CAKI-1, > 100 µM (inactive). For the same compound, the GI50 in the assay on ACHN, in the assay with UACC-62 and with OVCAR-3 was > 100 µM (inactive) each time.

`COC(=O)C(c1n[nH]c2ccccc12)C(C(=O)OC)c1n[nH]c2ccccc12` (configuration not stated): the GI50 in the assay with OVCAR-5 is > 100 µM (inactive); with SF-268 it was > 100 µM (inactive); with SK-MEL-28 it was 41.7 µM (inactive); with K562, 28 µM (inactive); in the assay with MOLT-4 it was 22.7 µM (inactive); in the assay on SK-OV-3, > 100 µM (inactive). Also, the GI50 with CCRF-CEM was 24.5 µM (inactive); in the assay with UO-31, > 100 µM (inactive); in the assay with M14, 32.1 µM (inactive); in the assay on TK-10 it was > 100 µM (inactive); in the assay on OVCAR-8, 24.8 µM (inactive); in the assay with SF-539, 17 µM (inactive). Besides, the values for the GI50 in the assay with ACHN, in the assay on UACC-62 and in the assay with OVCAR-3 were 49.4 µM (inactive), 61.1 µM (inactive) and 41.8 µM (inactive), respectively.

As for `Nc1ccc(C(c2ccccc2)(c2ccccc2)c2ccccc2)cc1`, the GI50 was 99.3 µM (inactive) in the assay on SF-268; 19.7 µM (inactive) with SK-MEL-28; 70.6 µM (inactive) in the assay with K562; > 100 µM (inactive) in the assay on MOLT-4; 17.6 µM (inactive) in the assay on SK-OV-3; 29.6 µM (inactive) with CCRF-CEM. In addition, the GI50 is 15.8 µM (inactive) with M14; 20.2 µM (inactive) with TK-10; 33.9 µM (inactive) in the assay on OVCAR-8; 37 µM (inactive) in the assay on SF-539; 52.5 µM (inactive) with ACHN; 16.5 µM (inactive) with UACC-62. In the assay on OVCAR-3, the GI50 is 64.6 µM (inactive).

For `Cc1c(C(=O)CC(=O)C(=O)Nc2ccc(Cl)cc2)[n+]([O-])c2ccccc2[n+]1[O-]`, the GI50 with OVCAR-5, in the assay with SF-268, in the assay with SK-MEL-28, with K562, in the assay with MOLT-4 and in the assay on SK-OV-3 was > 100 µM (inactive) in each case. Further, the GI50 with CCRF-CEM, with UO-31, with M14, with TK-10, in the assay with OVCAR-8 and in the assay with SF-539 was > 100 µM (inactive) each time. The GI50 in the assay with CAKI-1, in the assay on ACHN, with UACC-62 and in the assay with OVCAR-3 was > 100 µM (inactive) in each case.

On to `COc1ccc2c(c1)CN1CCc3c(cc(OC)c(OC)c3OC)C1C2` (configuration not stated), for which the GI50 in the assay with OVCAR-5 was 64.1 µM (inactive); in the assay on SF-268 it was > 100 µM (inactive); in the assay on SK-MEL-28 it was 47.6 µM (inactive); in the assay with K562, 57.5 µM (inactive); with MOLT-4, 63 µM (inactive); in the assay with SK-OV-3 it was > 100 µM (inactive). Also, the GI50 with CCRF-CEM was 74.6 µM (inactive); in the assay with UO-31, > 100 µM (inactive); in the assay with M14, 87.1 µM (inactive); in the assay on TK-10, > 100 µM (inactive); with OVCAR-8 it was > 100 µM (inactive); in the assay on SF-539 it was > 100 µM (inactive). Besides, the GI50 in the assay on CAKI-1 is > 100 µM (inactive); in the assay on ACHN it was > 100 µM (inactive); in the assay with UACC-62 it was 74.1 µM (inactive); in the assay on OVCAR-3, > 100 µM (inactive).
